# Laboratory results from patent US10933063B2 (priority 2017, dated 2021).
# pIC50: −log10 of the molar value.
# Target: BTK (Homo sapiens (Human), UniProt Q06187)
# Test: biochemical
# Method: Btk kinase activity was determined using a homogenous time resolved fluorescence (HTRF) methodology. Measurements were performed in a reaction volume of 15 μL using 384-well assay plates. Kinase enzyme, inhibitor, ATP and 1 μM peptide substrate were incubated in a reaction buffer compose of Hepes50 mM (pH7.0), NaN3 0.02%, BSA 0.01%, Orthocanadate 0.1 mM. […] For each compound, enzyme activity as measured at various concentrations of compound, Negative control reactions were performed in the absence of inhibitor in two replicates and eight no enzyme controls were used to determine baseline fluorescence levels.
# BTK, sequence (Q06187 whole entry, looked up, species assumed): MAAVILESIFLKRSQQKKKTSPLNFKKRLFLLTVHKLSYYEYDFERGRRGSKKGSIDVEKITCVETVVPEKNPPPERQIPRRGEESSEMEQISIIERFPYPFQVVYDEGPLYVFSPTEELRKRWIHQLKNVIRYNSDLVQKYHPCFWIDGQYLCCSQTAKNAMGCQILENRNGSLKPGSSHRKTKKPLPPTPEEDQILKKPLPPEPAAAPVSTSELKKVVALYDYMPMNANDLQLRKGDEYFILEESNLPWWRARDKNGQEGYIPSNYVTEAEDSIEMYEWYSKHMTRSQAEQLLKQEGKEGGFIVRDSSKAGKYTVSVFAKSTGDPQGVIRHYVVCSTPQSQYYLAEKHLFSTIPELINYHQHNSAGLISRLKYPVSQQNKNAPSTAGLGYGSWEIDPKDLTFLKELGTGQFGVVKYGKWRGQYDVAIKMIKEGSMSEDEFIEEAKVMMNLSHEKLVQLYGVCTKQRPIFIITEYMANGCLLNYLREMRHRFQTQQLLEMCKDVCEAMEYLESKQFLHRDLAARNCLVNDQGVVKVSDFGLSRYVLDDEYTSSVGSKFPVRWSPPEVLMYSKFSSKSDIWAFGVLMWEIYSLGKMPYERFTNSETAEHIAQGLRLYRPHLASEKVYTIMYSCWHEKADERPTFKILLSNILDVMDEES
row,Structure (SMILES),pIC50
1,"CC#CC(=O)N1CCC[C@@H](c2nc(-c3ccc(Oc4cccc(OC)c4)cc3)c3cnccn23)C1 [Example 52, (R)-1-(3-(1-(4-(3-methoxyphenoxy)phenyl)imidazo[1,5-a]pyrazin-3-yl)piperidin-1-yl)but-2-yn-1-one]",6.00 to 7.00
2,"C=CC(=O)N1CC[C@@H](c2nc(-c3ccc(C(=O)Nc4ccccn4)cc3)c3c(C)ncc(C)n23)C1 [Example 182, (R)-4-(3-(1-acryloylpyrrolidin-3-yl)-5,8-dimethylimidazo [1,5-a]pyrazin-1-yl)-N-(pyridin-2-yl)benzamide]",7.00 to 8.00
3,"CC#CC(=O)N1CCC[C@@H](c2nc(-c3ccc(Oc4cccc(OC)c4F)cc3)c3c(C)ncc(C)n23)C1 [Example 77, (R)-1-(3-(1-(4-(2-fluoro-3-methoxyphenoxy)phenyl)-5,8-dimethylimidazo[1,5-a]pyrazin-3-yl)piperidin-1-yl)but-2-yn-1-one]",6.00 to 7.00
4,"C=CC(=O)N1CCC[C@H]1c1nc(-c2ccc(COc3cccc(F)c3)cc2)c2cnccn12 [Example 145, (S)-1-(2-(1-(4-((3-fluorophenoxy)methyl)phenyl)imidazo[1,5-a]pyrazin-3-yl)pyrrolidin-1-yl)prop-2-en-1-one]",7.00 to 8.00
5,"COc1cccc(Oc2ccc(-c3nc([C@@H]4CCCN4C(=O)/C(C#N)=C/C(C)(C)C)n4ccncc34)cc2)c1F [Example 31, (S,E)-2-(2-(1-(4-(2-fluoro-3-methoxyphenoxy)phenyl)imidazo[1,5-a]pyrazin-3-yl)pyrrolidine-1-carbonyl)-4,4-dimethylpent-2-enenitrile]",6.00 to 7.00
6,"C=CC(=O)N1CCC[C@H]1c1nc(-c2ccc(Oc3cccc(C)c3C)cc2)c2cnccn12 [Example 12, (S)-1-(2-(1-(4-(2,3-dimethylphenoxy)phenyl)imidazo[1,5-a]pyrazin-3-yl)pyrrolidin-1-yl)prop-2-en-1-one]",7.00 to 8.00
7,"C=CC(=O)N1CC[C@@H](c2nc(-c3ccc(Oc4cccc(OC)c4F)cc3)c3c(O)nccn23)C1 [Example 113, (R)-1-(3-(1-(4-(2-fluoro-3-methoxyphenoxy)phenyl)-8-hydroxyimidazo[1,5-a]pyrazin-3-yl)pyrrolidin-1-yl)prop-2-en-1-one]",6.00 to 7.00
8,"C=CC(=O)N1CC[C@@H](c2nc(-c3ccc(Oc4cccc(OC)c4F)cc3)c3cncc(C)n23)C1 [Example 72, (R)-1-(3-(1-(4-(2-fluoro-3-methoxyphenoxy)phenyl)-5-methylimidazo[1,5-a]pyrazin-3-yl)pyrrolidin-1-yl)prop-2-en-1-one]",7.00 to 8.00
9,"CC#CC(=O)N1CCCC[C@H]1c1nc(-c2ccc(C(=O)Nc3ccccn3)cc2)c2cnccn12 [Example 169, (S)-4-(3-(1-(but-2-ynoyl)piperidin-2-yl)imidazo [1,5-a]pyrazin-1-yl)-N-(pyridin-2-yl)benzamide]",6.00 to 7.00
10,"CC#CC(=O)N1CC[C@@H](c2nc(-c3ccc(Oc4cccc(OC)c4F)cc3)c3cncc(OCCOC)n23)C1 [Example 103, (R)-1-(3-(1-(4-(2-fluoro-3-methoxyphenoxy)phenyl)-5-(2-methoxyethoxy)imidazo[1,5-a]pyrazin-3-yl)pyrrolidin-1-yl)but-2-yn-1-one]",7.00 to 8.00
11,"CC#CC(=O)N1CCC[C@H]1c1nc(-c2ccc(Oc3cccc(OC)c3F)cc2)c2cncc(C)n12 [Example 63, (S)-1-(2-(1-(4-(2-fluoro-3-methoxyphenoxy)phenyl)-5-methylimidazo[1,5-a]pyrazin-3-yl)pyrrolidin-1-yl)but-2-yn-1-one]",6.00 to 7.00
12,"C=CC(=O)N1CCC[C@H]1c1nc(-c2ccc(Oc3cccc(OC)c3F)cc2)c2c(C(N)=O)nccn12 [Example 37, (S)-3-(1-acryloylpyrrolidin-2-yl)-1-(4-(2-fluoro-3-methoxyphenoxy)phenyl)imidazo[1,5-a]pyrazine-8-carboxamide]",5.00 to 6.00
13,"CC#CC(=O)N1CC[C@@H](c2nc(-c3ccc(Oc4cccc(OC)c4F)cc3)c3cncc(OC4CCOC4)n23)C1 (stereo partly drawn) [Example 99, 1-((3R)-3-(1-(4-(2-fluoro-3-methoxyphenoxy)phenyl)-5-((tetrahydrofuran-3-yl)oxy)imidazo[1,5-a]pyrazin-3-yl)pyrrolidin-1-yl)but-2-yn-1-one]",7.00 to 8.00
14,"C=CC(=O)N1CCC[C@H]1c1nc(-c2ccc(OCc3cccc(F)c3)cc2)c2cnccn12 [Example 135, (S)-1-(2-(1-(4-((3-fluorobenzyl)oxy)phenyl)imidazo[1,5-a]pyrazin-3-yl)pyrrolidin-1-yl)prop-2-en-1-one]",7.00 to 8.00
15,"C=CC(=O)N1CCCC[C@H]1c1nc(-c2ccc(OCc3cccc(F)c3F)cc2)c2c(C)nccn12 [Example 154, (S)-1-(2-(1-(4-((2,3-difluorobenzyl)oxy)phenyl)-8-methylimidazo[1,5-a]pyrazin-3-yl)piperidin-1-yl)prop-2-en-1-one]",7.00 to 8.00
16,"C=CC(=O)N1CCC[C@H]1c1nc(-c2ccc(Oc3ccccc3)c(Cl)c2)c2cnccn12 [Example 26, (S)-1-(2-(1-(3-chloro-4-phenoxyphenyl)imidazo[1,5-a]pyrazin-3-yl)pyrrolidin-1-yl)prop-2-en-1-one]",7.00 to 8.00
17,"CC#CC(=O)N1CCC[C@H]1c1nc(-c2ccc(Oc3ccccc3)cc2Cl)c2cnccn12 [Example 14, (S)-1-(2-(1-(2-chloro-4-phenoxyphenyl)imidazo[1,5-a]pyrazin-3-yl)pyrrolidin-1-yl)but-2-yn-1-one]",5.00 to 6.00

row,Structure (SMILES),pIC50
1,"C=CC(=O)N1CC[C@@H](c2nc(-c3ccc(Oc4cccc(OC)c4F)cc3)c3c(CCC)nccn23)C1 [Example 109, (R)-1-(3-(1-(4-(2-fluoro-3-methoxyphenoxy)phenyl)-8-propylimidazo[1,5-a]pyrazin-3-yl)pyrrolidin-1-yl)prop-2-en-1-one]",6.00 to 7.00
2,"CC#CC(=O)N1CCC[C@H]1c1nc(-c2ccc(OCc3ccc(F)c(F)c3)cc2)c2cnccn12 [Example 134, (S)-1-(2-(1-(4-((3,4-difluorobenzyl)oxy)phenyl)imidazo[1,5-a]pyrazin-3-yl)pyrrolidin-1-yl)but-2-yn-1-one]",5.00 to 6.00
3,"C=CC(=O)N1CCC[C@H]1c1nc(-c2ccc(Oc3ccccc3OC)cc2)c2cnccn12 [Example 23, (S)-1-(2-(1-(4-(2-methoxyphenoxy)phenyl)imidazo[1,5-a]pyrazin-3-yl)pyrrolidin-1-yl)prop-2-en-1-one]",7.00 to 8.00
4,"CC#CC(=O)N1CC[C@@H](c2nc(-c3ccc(C(=O)Nc4ccccn4)cc3)c3c(C)ncc(OCC)n23)C1 [Example 205, (R)-4-(3-(1-(but-2-ynoyl)pyrrolidin-3-yl)-5-ethoxy-8-methylimidazo[1,5-a]pyrazin-1-yl)-N-(pyridin-2-yl)benzamide]",7.00 to 8.00
5,"CC#CC(=O)N1CC[C@@H](c2nc(-c3ccc(C(=O)Nc4ccccn4)cc3)c3cncc(C)n23)C1 [Example 181, (R)-4-(3-(1-(but-2-ynoyl)pyrrolidin-3-yl)-5-methylimidazo[1,5-a]pyrazin-1-yl)-N-(pyridin-2-yl)benzamide]",5.00 to 6.00
6,"CC#CC(=O)N1CCCC[C@H]1c1nc(-c2ccc(Oc3cccc(OC)c3)cc2)c2cnccn12 [Example 59, (S)-1-(2-(1-(4-(3-methoxyphenoxy)phenyl)imidazo[1,5-a]pyrazin-3-yl)piperidin-1-yl)but-2-yn-1-one]",6.00 to 7.00
7,"CC#CC(=O)N1CCCC[C@H]1c1nc(-c2ccc(C(=O)Nc3ccccn3)cc2)c2cncc(C)n12 [Example 187, (S)-4-(3-(1-(but-2-ynoyl)piperidin-2-yl)-5-methylimidazo[1,5-a]pyrazin-1-yl)-N-(pyridin-2-yl)benzamide]",5.00 to 6.00
8,"C=CC(=O)N1CCCC[C@H]1c1nc(-c2ccc(Oc3cccc(Cl)c3F)cc2)c2c(C)nccn12 [Example 42, (S)-1-(2-(1-(4-(3-chloro-2-fluorophenoxy)phenyl)-8-methylimidazo[1,5-a]pyrazin-3-yl)piperidin-1-yl)prop-2-en-1-one]",7.00 to 8.00
9,"C=CC(=O)N1CCC[C@H]1c1nc(-c2ccc(COc3ccccc3F)cc2)c2cnccn12 [Example 125, (S)-(2-(1-(4-((2-fluorophenoxy)methyl)phenyl)imidazo[1,5-a]pyrazin-3-yl)pyrrolidin-1-yl)prop-2-en-1-one]",7.00 to 8.00
10,"CC#CC(=O)N1CCC[C@H]1c1nc(-c2ccc(C(=O)Nc3ccccn3)cc2)c2cncc(C)n12 [Example 173, (S)-4-(3-(1-(but-2-ynoyl)pyrrolidin-2-yl)-5-methylimidazo[1,5-a]pyrazin-1-yl)-N-(pyridin-2-yl)benzamide]",5.00 to 6.00
11,"CC#CC(=O)N1CCCC[C@H]1c1nc(-c2ccc(Oc3cccc(F)c3F)cc2)c2c(C)nccn12 [Example 60, (S)-1-(2-(1-(4-(2,3-difluorophenoxy)phenyl)-8-methylimidazo[1,5-a]pyrazin-3-yl)piperidin-1-yl)but-2-yn-1-one]",7.00 to 8.00
12,"C=CC(=O)N1CCCC[C@H]1c1nc(-c2ccc(C(=O)Nc3ccccn3)cc2)c2c(C)ncc(C)n12 [Example 188, (S)-4-(3-(1-acryloylpiperidin-2-yl)-5,8-dimethylimidazo [1,5-a]pyrazin-1-yl)-N-(pyridin-2-yl)benzamide]",7.00 to 8.00
13,"C=CC(=O)N1CCCC[C@H]1c1nc(-c2ccc(Oc3cccc(F)c3)cc2)c2cnccn12 [Example 45, (S)-1-(2-(1-(4-(3-fluorophenoxy)phenyl)imidazo[1,5-a]pyrazin-3-yl)piperidin-1-yl)prop-2-en-1-one]",7.00 to 8.00
14,"CC#CC(=O)N1CC[C@@H](c2nc(-c3ccc(Oc4cccc(OC)c4F)cc3)c3c(C)ncc(C)n23)C1 [Example 75, (R)-1-(3-(1-(4-(2-fluoro-3-methoxyphenoxy)phenyl)-5,8-dimethylimidazo[1,5-a]pyrazin-3-yl)pyrrolidin-1-yl)but-2-yn-1-one]",7.00 to 8.00
15,"CC#CC(=O)N1CC[C@@H](c2nc(-c3ccc(C(=O)Nc4ccccn4)cc3)c3cncc(OCC)n23)C1 [Example 193, (R)-4-(3-(1-(but-2-ynoyl)pyrrolidin-3-yl)-5-ethoxyimidazo[1,5-a]pyrazin-1-yl)-N-(pyridin-2-yl)benzamide]",6.00 to 7.00
16,"CC#CC(=O)N1CCCC[C@H]1c1nc(-c2ccc(Oc3cccc(F)c3)cc2)c2c(C)nccn12 [Example 56, (S)-1-(2-(1-(4-(3-fluorophenoxy)phenyl)-8-methylimidazo[1,5-a]pyrazin-3-yl)piperidin-1-yl)but-2-yn-1-one]",7.00 to 8.00
